According to patent US20240245694A1, “Tricyclic Compounds and their Uses” (Novartis AG, priority 2022, published 2024):

Tests used:
[1] = target: WRN helicase (core helicase motif aa N517-P1238) (Homo sapiens (Human), UniProt Q14191); experiment: WRN ATPase assay (ADP-Glo), DNA dependent ATP hydrolysis; type: biochemical; conditions: 3 hours pre-incubation, 300 micromolar ATP, FLAP26 ssDNA; geometric means of at least 2 determinations
Outline: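 Uses the WRN core helicase (aa N517-P1238) with single-strand 45-mer FLAP26 DNA in Tris pH 7.5, MgCl2, NaCl, BSA and pluronic buffer. Compound was pre-incubated 3 h with enzyme and ATP; reaction then run with 10 nM WRN, 0.2 nM FLAP26 and 300 µM ATP for 30 min at room temperature. ADP quantified by ADP-Glo luminescence; IC50 from duplicate 4-parameter fits, geometric mean of ≥2 runs.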

DLD1-WRN-KO cells = experiment: Proliferation assay DLD1-WRN-KO (CellTiterGlo, 96 hours), off-target effects; type: cell-based; conditions: Homo sapiens
Outline: (§1)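 Cells in RPMI-1640/10% FCS were seeded overnight (SW48 2'000, DLD1-WRN-KO 1'500 cells/well), then exposed to eight 3-fold compound dilutions at 0.1% DMSO. ATP luminescence relative to a day-0 plate gives % growth (0% stasis, −100% complete kill). GI50 is the geometric mean of ≥2 independent replicates.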

SW48 cells = experiment: Proliferation assay SW48 (CellTiterGlo, 96 hours); type: cell-based; conditions: Homo sapiens
Outline: as §1

Sequence of WRN helicase (core helicase motif aa N517-P1238) (Q14191 517-1238): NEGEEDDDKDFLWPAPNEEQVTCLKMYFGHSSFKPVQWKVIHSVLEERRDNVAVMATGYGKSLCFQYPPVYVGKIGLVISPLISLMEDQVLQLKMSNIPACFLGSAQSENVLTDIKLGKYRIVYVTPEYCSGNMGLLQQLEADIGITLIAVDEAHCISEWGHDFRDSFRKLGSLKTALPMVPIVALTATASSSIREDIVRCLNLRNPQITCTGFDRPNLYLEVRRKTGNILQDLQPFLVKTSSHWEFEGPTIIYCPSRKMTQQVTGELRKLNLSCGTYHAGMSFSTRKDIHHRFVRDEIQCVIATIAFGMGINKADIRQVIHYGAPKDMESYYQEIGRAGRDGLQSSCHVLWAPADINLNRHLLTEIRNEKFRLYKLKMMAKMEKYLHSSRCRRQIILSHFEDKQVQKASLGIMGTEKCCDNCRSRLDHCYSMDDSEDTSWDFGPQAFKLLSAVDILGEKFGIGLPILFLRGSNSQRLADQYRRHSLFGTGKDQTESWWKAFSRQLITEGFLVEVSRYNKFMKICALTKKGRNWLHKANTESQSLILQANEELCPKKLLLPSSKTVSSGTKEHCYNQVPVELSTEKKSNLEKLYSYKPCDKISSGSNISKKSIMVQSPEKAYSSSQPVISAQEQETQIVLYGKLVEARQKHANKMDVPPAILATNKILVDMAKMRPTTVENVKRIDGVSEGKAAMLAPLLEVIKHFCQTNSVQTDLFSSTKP

Cc1cc(C(F)(F)F)ccc1NC(=O)[C@H]1C[C@@H](C)c2c(N3CCN(C(=O)c4ncccc4O)CC3)c(=O)n3nc(C4=CCOCC4)nc3n21 [Example 15A, (7R,9R)-2-(3,6-dihydro-2H-pyran-4-yl)-6-(4-(3-hydroxypicolinoyl)piperazin-1-yl)-7-methyl-N-(2-methyl-4-(trifluoromethyl)phenyl)-5-oxo-5,7,8,9-tetrahydropyrrolo[1,2-c][1,2,4]triazolo[1,5-a]pyrimidine-9-carboxamide] was tested, and the IC50 [1] was 0.05 µM, the GI50 (DLD1-WRN-KO cells) was over 10 µM and the GI50 (SW48 cells) was 0.03 µM.
C[C@@H]1C[C@H](C(=O)Nc2ccc(C(F)(F)F)cc2Cl)n2c1c(N1CCN(C(=O)c3ncccc3O)CC1)c(=O)n1nc(C3=CCOCC3)nc21 [Example 11, (7R,9R)—N-(2-chloro-4-(trifluoromethyl)phenyl)-2-(3,6-dihydro-2H-pyran-4-yl)-6-(4-(3-hydroxypicolinoyl)piperazin-1-yl)-7-methyl-5-oxo-5,7,8,9-tetrahydropyrrolo[1,2-c][1,2,4]triazolo[1,5-a]pyrimidine-9-carboxamide] gave an IC50 [1] of 0.05 µM, a GI50 (DLD1-WRN-KO cells) of over 10 µM and a GI50 (SW48 cells) of 0.04 µM.
Cc1cc(F)c(O)c(C(=O)N2CCN(c3c4n(c5nc(N6CCOCC6)nn5c3=O)[C@@H](C(=O)Nc3ccc(C(F)(F)F)cc3Cl)C[C@H]4C)CC2)n1 [Example 3A, (7R,9R)—N-(2-chloro-4-(trifluoromethyl)phenyl)-6-(4-(4-fluoro-3-hydroxy-6-methylpicolinoyl)piperazin-1-yl)-7-methyl-2-morpholino-5-oxo-5,7,8,9-tetrahydropyrrolo[1,2-c][1,2,4]triazolo[1,5-a]pyrimidine-9-carboxamide] showed an IC50 [1] of 0.03 µM, a GI50 (DLD1-WRN-KO cells) of over 10 µM and a GI50 (SW48 cells) of 0.04 µM.
For C[C@@H]1C[C@@H](C(=O)Nc2ccc(C(F)(F)F)cc2Cl)n2c1c(N1CCN(C(=O)c3nccc(Cl)c3O)CC1)c(=O)n1nc(N3CCOCC3)nc21 [Example 1D, (7R,9S)-6-(4-(4-chloro-3-hydroxypicolinoyl)piperazin-1-yl)-N-(2-chloro-4-(trifluoromethyl)phenyl)-7-methyl-2-morpholino-5-oxo-5,7,8,9-tetrahydropyrrolo[1,2-c][1,2,4]triazolo[1,5-a]pyrimidine-9-carboxamide], the IC50 [1] was 3 µM, the GI50 (DLD1-WRN-KO cells) was over 10 µM and the GI50 (SW48 cells) was 5 µM.
With C[C@@H]1C[C@H](C(=O)Nc2ccc(C(F)(F)F)cc2Cl)n2c1c(N1CCN(C(=O)c3ccnc(F)c3O)CC1)c(=O)n1nc(C3=CCOCC3)nc21 [Example 12, (7R,9R)—N-(2-chloro-4-(trifluoromethyl)phenyl)-2-(3,6-dihydro-2H-pyran-4-yl)-6-(4-(2-fluoro-3-hydroxyisonicotinoyl)piperazin-1-yl)-7-methyl-5-oxo-5,7,8,9-tetrahydropyrrolo[1,2-c][1,2,4]triazolo[1,5-a]pyrimidine-9-carboxamide] the IC50 [1] was 0.03 µM, the GI50 (DLD1-WRN-KO cells) was over 10 µM and the GI50 (SW48 cells) was 0.3 µM.
Cc1ncnc(C(=O)N2CCN(c3c4n(c5nc(N6CCOCC6)nn5c3=O)[C@@H](C(=O)Nc3ccc(C(F)(F)F)cc3Cl)C[C@@H]4C)CC2)c1O [Example 2C, (7S,9R)—N-(2-chloro-4-(trifluoromethyl)phenyl)-6-(4-(5-hydroxy-6-methylpyrimidine-4-carbonyl)piperazin-1-yl)-7-methyl-2-morpholino-5-oxo-5,7,8,9-tetrahydropyrrolo[1,2-c][1,2,4]triazolo[1,5-a]pyrimidine-9-carboxamide] showed an IC50 [1] of 0.1 µM, a GI50 (DLD1-WRN-KO cells) of over 10 µM and a GI50 (SW48 cells) of 1 µM.
Work on Cc1ncnc(C(=O)N2CCN(c3c4n(c5nc(N6CCOCC6)nn5c3=O)[C@H](C(=O)Nc3ccc(C(F)(F)F)cc3Cl)C[C@@H]4C)CC2)c1O [Example 2B, (7S,9S)—N-(2-chloro-4-(trifluoromethyl)phenyl)-6-(4-(5-hydroxy-6-methylpyrimidine-4-carbonyl)piperazin-1-yl)-7-methyl-2-morpholino-5-oxo-5,7,8,9-tetrahydropyrrolo[1,2-c][1,2,4]triazolo[1,5-a]pyrimidine-9-carboxamide] yielded an IC50 [1] of 26 µM, a GI50 (DLD1-WRN-KO cells) of over 10 µM and a GI50 (SW48 cells) of over 10 µM.
For Cc1cc(C(F)(F)F)ccc1NC(=O)[C@H]1CCc2c(N3CCN(C(=O)c4ncccc4O)CC3)c(=O)n3nc(C4=CCOCC4)nc3n21 [Example 20A, (R)-2-(3,6-dihydro-2H-pyran-4-yl)-6-(4-(3-hydroxypicolinoyl)piperazin-1-yl)-N-(2-methyl-4-(trifluoromethyl)phenyl)-5-oxo-5,7,8,9-tetrahydropyrrolo[1,2-c][1,2,4]triazolo[1,5-a]pyrimidine-9-carboxamide], the IC50 [1] was 0.09 µM, the GI50 (DLD1-WRN-KO cells) was over 10 µM and the GI50 (SW48 cells) was 0.3 µM.
Cc1cc(C(F)(F)F)ccc1NC(=O)[C@@H]1C[C@H](C)c2c(N3CCN(C(=O)c4ncccc4O)CC3)c(=O)n3nc(C4=CCOCC4)nc3n21 [Example 15B, (7S,9S)-2-(3,6-dihydro-2H-pyran-4-yl)-6-(4-(3-hydroxypicolinoyl)piperazin-1-yl)-7-methyl-N-(2-methyl-4-(trifluoromethyl)phenyl)-5-oxo-5,7,8,9-tetrahydropyrrolo[1,2-c][1,2,4]triazolo[1,5-a]pyrimidine-9-carboxamide] was tested, and the IC50 [1] was 18 µM, the GI50 (DLD1-WRN-KO cells) was over 10 µM and the GI50 (SW48 cells) was 8 µM.
CC(=O)N1CCN(c2c3n(c4nc(C5=CCOCC5)nn4c2=O)C(C(=O)Nc2ccc(C(F)(F)F)cc2)CC3)CC1 (racemic) [Example 24, rac-6-(4-acetylpiperazin-1-yl)-2-(3,6-dihydro-2H-pyran-4-yl)-5-oxo-N-(4-(trifluoromethyl)phenyl)-5,7,8,9-tetrahydropyrrolo[1,2-c][1,2,4]triazolo[1,5-a]pyrimidine-9-carboxamide] gave an IC50 [1] of 2 µM, a GI50 (DLD1-WRN-KO cells) of over 10 µM and a GI50 (SW48 cells) of 4 µM.
Cc1cc(F)c(O)c(C(=O)N2CCN(c3c4n(c5nc(N6CCOCC6)nn5c3=O)[C@H](C(=O)Nc3ccc(C(F)(F)F)cc3Cl)C[C@@H]4C)CC2)n1 [Example 3B, (7S,9S)—N-(2-chloro-4-(trifluoromethyl)phenyl)-6-(4-(4-fluoro-3-hydroxy-6-methylpicolinoyl)piperazin-1-yl)-7-methyl-2-morpholino-5-oxo-5,7,8,9-tetrahydropyrrolo[1,2-c][1,2,4]triazolo[1,5-a]pyrimidine-9-carboxamide] gave an IC50 [1] of 6 µM, a GI50 (DLD1-WRN-KO cells) of over 10 µM and a GI50 (SW48 cells) of over 10 µM.
Cc1cc(C(F)(F)F)ccc1NC(=O)[C@@H]1C[C@@H](C)c2c(N3CCN(C(=O)c4ncccc4O)CC3)c(=O)n3nc(C4=CCOCC4)nc3n21 [Example 15D, (7R,9S)-2-(3,6-dihydro-2H-pyran-4-yl)-6-(4-(3-hydroxypicolinoyl)piperazin-1-yl)-7-methyl-N-(2-methyl-4-(trifluoromethyl)phenyl)-5-oxo-5,7,8,9-tetrahydropyrrolo[1,2-c][1,2,4]triazolo[1,5-a]pyrimidine-9-carboxamide] gave an IC50 [1] of 61 µM, a GI50 (DLD1-WRN-KO cells) of over 10 µM and a GI50 (SW48 cells) of over 10 µM.
Cc1ncnc(C(=O)N2CCN(c3c4n(c5nc(C6=CCOCC6)nn5c3=O)[C@@H](C(=O)Nc3ccc(C(F)(F)F)cc3Cl)C[C@H]4C)CC2)c1O [Example 14A, (7R,9R)—N-(2-chloro-4-(trifluoromethyl)phenyl)-2-(3,6-dihydro-2H-pyran-4-yl)-6-(4-(5-hydroxy-6-methylpyrimidine-4-carbonyl)piperazin-1-yl)-7-methyl-5-oxo-5,7,8,9-tetrahydropyrrolo[1,2-c][1,2,4]triazolo[1,5-a]pyrimidine-9-carboxamide] showed an IC50 [1] of 0.04 µM, a GI50 (DLD1-WRN-KO cells) of over 10 µM and a GI50 (SW48 cells) of 0.02 µM.
In the case of Cc1ncnc(C(=O)N2CCN(c3c4n(c5nc(C6=CCOCC6)nn5c3=O)[C@@H](C(=O)Nc3ccc(C(F)(F)F)cc3Cl)C[C@@H]4C)[C@H]3CC[C@@H]32)c1O [Example 21C, (7S,9R)—N-(2-chloro-4-(trifluoromethyl)phenyl)-2-(3,6-dihydro-2H-pyran-4-yl)-6-((1S,6S)-5-(5-hydroxy-6-methylpyrimidine-4-carbonyl)-2,5-diazabicyclo[4.2.0]octan-2-yl)-7-methyl-5-oxo-5,7,8,9-tetrahydropyrrolo[1,2-c][1,2,4]triazolo[1,5-a]pyrimidine-9-carboxamide], the IC50 [1] is reported as 0.04 µM, the GI50 (DLD1-WRN-KO cells) is reported as over 10 µM and the GI50 (SW48 cells) is reported as 0.01 µM.
With Cc1ncnc(C(=O)N2CCN(c3c4n(c5nc(C6=CCOCC6)nn5c3=O)[C@H](C(=O)Nc3ccc(C(F)(F)F)cc3Cl)C[C@@H]4C)CC2)c1O [Example 14B, (7S,9S)—N-(2-chloro-4-(trifluoromethyl)phenyl)-2-(3,6-dihydro-2H-pyran-4-yl)-6-(4-(5-hydroxy-6-methylpyrimidine-4-carbonyl)piperazin-1-yl)-7-methyl-5-oxo-5,7,8,9-tetrahydropyrrolo[1,2-c][1,2,4]triazolo[1,5-a]pyrimidine-9-carboxamide] the IC50 [1] was 2 µM, the GI50 (DLD1-WRN-KO cells) was over 10 µM and the GI50 (SW48 cells) was 0.7 µM.
In the case of C[C@@H]1C[C@H](C(=O)Nc2ccc(C(F)(F)F)cc2Cl)n2c1c(N1CCN(C(=O)c3nn(C)c(=O)[nH]3)CC1)c(=O)n1nc(C3=CCOCC3)nc21 [Example 7, (7R,9R)—N-(2-chloro-4-(trifluoromethyl)phenyl)-2-(3,6-dihydro-2H-pyran-4-yl)-7-methyl-6-(4-(1-methyl-5-oxo-4,5-dihydro-1H-1,2,4-triazole-3-carbonyl)piperazin-1-yl)-5-oxo-5,7,8,9-tetrahydropyrrolo[1,2-c][1,2,4]triazolo[1,5-a]pyrimidine-9-carboxamide], the IC50 [1] is reported as 0.05 µM, the GI50 (DLD1-WRN-KO cells) is reported as over 10 µM and the GI50 (SW48 cells) is reported as 0.3 µM.
